Results taken from the supplement of paper PMC10307832.

Columns and labels:
Assay in all cases: relative viability (nuclei count vs DMSO), 5 days (fraction); higher = more cells survive
Erlotinib + Palbociclib = compound: C#Cc1cccc(Nc2ncnc3cc(OCCOC)c(OCCOC)cc23)c1 [Erlotinib] + CC(=O)c1c(C)c2cnc(Nc3ccc(N4CCNCC4)cn3)nc2n(C2CCCC2)c1=O [Palbociclib] (partner 0.5 µM)
Method in brief: (§1)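 Lung cancer cell lines were pin-tool dosed in 1536-well plates on the day after seeding, with either a lone drug or a fixed anchor-drug dose plus five library-drug doses (not always all listed) in √10 steps. Nuclei were counted on 4× images after 5 days. Relative viability is the ratio of treated-well to vehicle-well nuclei counts, with each value a median of duplicate plates.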

Erlotinib + AZD7762 = compound: C#Cc1cccc(Nc2ncnc3cc(OCCOC)c(OCCOC)cc23)c1 [Erlotinib] + NC(=O)Nc1cc(-c2cccc(F)c2)sc1C(=O)N[C@H]1CCCNC1 [AZD7762] (partner 0.2 µM)
Method in brief: as §1

AT9283 + Palbociclib = compound: O=C(Nc1c[nH]nc1-c1nc2ccc(CN3CCOCC3)cc2[nH]1)NC1CC1 [AT9283] + CC(=O)c1c(C)c2cnc(Nc3ccc(N4CCNCC4)cn3)nc2n(C2CCCC2)c1=O [Palbociclib] (partner 0.5 µM)
Method in brief: as §1

AT9283 + Alpelisib = compound: O=C(Nc1c[nH]nc1-c1nc2ccc(CN3CCOCC3)cc2[nH]1)NC1CC1 [AT9283] + Cc1nc(NC(=O)N2CCC[C@H]2C(N)=O)sc1-c1ccnc(C(C)(C)C(F)(F)F)c1 [Alpelisib] (partner 2 µM)
Method in brief: as §1

Erlotinib + Alpelisib = compound: C#Cc1cccc(Nc2ncnc3cc(OCCOC)c(OCCOC)cc23)c1 [Erlotinib] + Cc1nc(NC(=O)N2CCC[C@H]2C(N)=O)sc1-c1ccnc(C(C)(C)C(F)(F)F)c1 [Alpelisib] (partner 2 µM)
Method in brief: as §1

Cell Line | relative viability (Erlotinib + Palbociclib; first compound 0.02 µM) | relative viability (Erlotinib + Palbociclib; first compound 0.2 µM) | relative viability (Erlotinib + Palbociclib; first compound 0.6325 µM) | relative viability (Erlotinib + Palbociclib; first compound 2 µM) | relative viability (Erlotinib + AZD7762; first compound 0.02 µM) | relative viability (Erlotinib + AZD7762; first compound 0.2 µM) | relative viability (Erlotinib + AZD7762; first compound 0.6325 µM) | relative viability (Erlotinib + AZD7762; first compound 2 µM) | relative viability (AT9283 + Palbociclib; first compound 0.003 µM) | relative viability (AT9283 + Palbociclib; first compound 0.03 µM) | relative viability (AT9283 + Palbociclib; first compound 0.09487 µM) | relative viability (AT9283 + Palbociclib; first compound 0.3 µM) | relative viability (AT9283 + Alpelisib; first compound 0.003 µM) | relative viability (AT9283 + Alpelisib; first compound 0.03 µM) | relative viability (AT9283 + Alpelisib; first compound 0.09487 µM) | relative viability (AT9283 + Alpelisib; first compound 0.3 µM) | relative viability (Erlotinib + Alpelisib; first compound 0.02 µM) | relative viability (Erlotinib + Alpelisib; first compound 0.2 µM) | relative viability (Erlotinib + Alpelisib; first compound 0.6325 µM) | relative viability (Erlotinib + Alpelisib; first compound 2 µM)
EKVX | 0.348 | 0.191 | 0.205 | 0.115 | 0.686 | 0.693 | 0.423 | 0.219 | 0.387 | 0.368 | 0.274 | 0.179 | 0.934 | 0.726 | 0.356 | 0.218 | 0.835 | 0.403 | 0.315 | 0.116
LK-2 | 0.579 | 0.589 | 0.712 | 0.743 | 0.376 | 0.366 | 0.438 | 0.268 | 0.527 | 0.145 | 0.133 | 0.115 | 0.936 | 0.379 | 0.21 | 0.236 | 0.932 | 0.976 | 1.33 | 1.03
NCI-H460 | 0.257 | 0.14 | 0.198 | 0.183 | 0.613 | 0.734 | 0.631 | 0.629 | 0.146 | 0.191 | 0.0941 | 0.0475 | 0.516 | 0.43 | 0.0573 | 0.017 | 0.585 | 0.415 | 0.492 | 0.399
NCI-H1793 | 0.252 | 0.241 | 0.247 | 0.241 | 0.683 | 0.31 | 0.438 | 0.258 | 0.275 | 0.329 | 0.298 | 0.255 | 0.642 | 0.871 | 0.363 | 0.254 | 0.747 | 0.549 | 0.516 | 0.579
NCI-H1437 | 0.308 | 0.27 | 0.319 | 0.281 | 1.01 |  |  | 0.956 | 0.319 | 0.354 | 0.206 | 0.193 | 0.997 | 0.88 | 0.571 | 0.155 | 0.924 | 0.965 |  | 0.854
HCC-366 | 0.389 | 0.358 | 0.544 | 0.312 | 0.346 | 0.258 | 0.191 | 0.0996 | 0.373 | 0.309 | 0.157 | 0.101 | 0.48 | 0.17 | 0.122 | 0.0346 | 0.46 | 0.25 | 0.402 | 0.209
NCI-H2087 | 0.238 | 0.246 | 0.212 | 0.226 | 1.4 | 1.33 | 1.29 | 1.17 | 0.218 | 0.234 | 0.117 | 0.121 | 1.22 | 0.658 | 0.259 | 0.165 | 1.3 |  | 1.09 | 1.04
LU99A | 0.466 | 0.421 | 0.38 | 0.327 | 0.414 | 0.414 | 0.295 | 0.418 | 0.358 | 0.226 | 0.14 | 0.139 | 0.489 | 0.222 | 0.144 | 0.152 | 0.644 | 0.478 | 0.562 | 0.333
NCI-H1993 | 0.585 | 0.561 | 0.503 | 0.514 | 0.732 | 0.555 | 0.566 | 0.535 | 0.597 | 0.665 | 0.534 | 0.34 | 0.789 | 0.612 | 0.552 | 0.515 | 0.73 | 0.644 | 0.647 | 0.739
NCI-H2347 | 0.432 | 0.415 | 0.429 | 0.468 | 0.689 | 0.856 | 0.783 | 0.655 | 0.444 | 0.515 | 0.475 | 0.346 | 1.16 | 1.04 | 0.606 | 0.451 | 1.33 | 0.966 | 1.13 | 0.893
NCI-H1734 | 0.346 | 0.342 | 0.372 | 0.41 | 0.579 | 0.513 | 0.607 | 0.507 | 0.336 | 0.281 | 0.227 | 0.233 | 0.696 | 0.497 | 0.283 | 0.292 | 0.704 | 0.61 | 0.84 | 0.602
HCC-44 | 0.991 | 1.03 | 0.982 |  | 1.01 | 1.02 | 0.984 | 0.96 | 0.992 | 1 | 0.557 | 0.698 | 0.784 | 0.795 | 0.2 | 0.116 | 0.821 | 0.698 | 0.909 | 0.707
LCLC-97TM1 | 0.234 | 0.243 | 0.256 | 0.194 | 0.291 | 0.309 | 0.356 | 0.196 | 0.199 | 0.201 | 0.106 | 0.0962 | 0.198 | 0.151 | 0.11 | 0.111 | 0.218 |  | 0.316 | 0.259
HOP-62 | 0.544 | 0.517 | 0.453 | 0.41 | 0.702 | 0.638 | 0.541 |  | 0.468 | 0.405 | 0.188 | 0.197 | 1.11 | 0.991 | 0.207 | 0.219 |  | 1.05 | 1.05 | 0.977
NCI-H2405 | 0.534 | 0.521 | 0.535 | 0.54 | 0.749 | 0.669 | 0.774 | 0.652 | 0.519 | 0.407 | 0.284 | 0.196 | 0.881 | 0.551 | 0.236 | 0.15 | 0.853 | 0.772 | 0.822 | 0.698
HCC-78 | 0.482 | 0.432 | 0.458 | 0.459 | 0.5 | 0.55 | 0.524 | 0.369 | 0.473 | 0.476 | 0.396 | 0.347 | 0.286 | 0.275 | 0.165 | 0.18 | 0.353 | 0.337 | 0.305 | 0.186
RERF-LC-KJ | 1.02 | 1.01 | 0.93 | 0.759 | 0.846 | 0.944 | 0.949 | 0.608 | 1.17 | 0.77 | 0.475 | 0.302 | 0.808 | 0.738 | 0.441 | 0.251 | 0.877 | 0.666 | 0.613 | 0.469
NCI-H1915 | 0.522 | 0.526 | 0.599 | 0.502 | 0.72 | 0.675 |  | 0.659 | 0.545 | 0.51 | 0.254 | 0.153 | 1.01 | 1.06 | 0.24 | 0.222 | 1.09 |  | 1.09 | 
NCI-H1666 | 0.624 | 0.613 | 0.631 | 0.74 | 0.72 | 0.834 | 0.732 | 0.633 | 0.619 | 0.691 | 0.524 | 0.534 | 1.04 | 0.736 | 0.363 | 0.291 | 0.901 | 0.631 | 0.504 | 0.348
NCI-H322M | 0.401 | 0.431 | 0.378 | 0.426 | 0.464 | 0.481 | 0.371 | 0.395 | 0.481 | 0.494 | 0.423 | 0.427 | 0.846 | 0.906 | 0.544 | 0.396 | 0.693 | 0.745 | 0.589 | 0.335
LC-2-ad | 0.527 | 0.491 | 0.472 | 0.411 | 0.843 | 0.508 | 0.514 | 0.389 | 0.458 | 0.415 | 0.29 | 0.229 | 0.933 | 0.319 | 0.106 | 0.107 | 0.909 | 0.843 | 0.834 | 0.686
LCLC-103H | 0.503 | 0.429 | 0.457 | 0.467 | 0.801 | 0.875 | 0.874 | 0.669 | 0.362 | 0.494 | 0.423 | 0.371 | 0.89 | 1.09 | 1.11 | 0.332 | 0.882 | 0.953 | 0.994 | 0.91
HCC-827 | 0.191 | 0.146 | 0.135 | 0.154 | 0.137 | 0.153 | 0.116 | 0.123 | 0.478 | 0.428 | 0.272 | 0.174 | 0.96 | 0.856 | 0.349 | 0.212 | 0.3 | 0.171 | 0.172 | 0.148
